From patent US12122973B2, “Guanidinium-based ionic liquid and its use as a lubricant additive” (TOTALENERGIES ONETECH, priority 2020, dated 2024) come the findings set out here.

Data set [1] is described as follows: Solubility test of the ionic liquid in base oil. It is filed as physicochemical. Particulars: lubricant composition of IL1 and base oil; room temperature (15-25° C.) and 60° C.; limpid after three months. The text has this:
In order to be used in a lubricant composition, the guanidinium-based ionic liquid must preferably be soluble in the base oil which represents the major part of the lubricant composition. A compound is oil-soluble when it can be solubilized at a concentration of at least 0.01% by weight with regards to the weight of a base oil, at room temperature. In order to check that the guanidinium-based ionic liquid is oil-soluble, a test is disclosed in the experimental part.
In order to check that the guanidinium-based ionic liquid is oil-soluble, the following test has been achieved:
100 mL of the lubricant composition comprising IL1 and the base oil is introduced into two reaction tubes. One of the tubes is maintained at room temperature (between 15 and 25° C.) and the other reaction tube is placed in an oven at 60° C.
After three months, the lubricant composition of both reaction tubes was limpid.

A short description of data set [2]: Base number (BN/TBN) according to ASTM D2896. It is filed as physicochemical. Particulars: neat ionic liquid. How it is done: An oil's neutralization capacity is measured by its BN or Base Number, characterized by its basicity. It is measured according to standard ASTM D-2896 and is expressed as an equivalent in milligrams of potash per gram of oil (also called “mg of KOH/g” or “BN point”). The BN is a standard criterion making it possible to adjust the basicity of the cylinder oils to the sulphur content of the fuel oil used, in order to be able to neutralize all of the sulphur contained in the fuel, and capable of being converted to sulphuric acid by combustion and hydrolysis.
The base number of IL1 is 61 mg KOH/g according to ASTM D2896.

In the case of “1,1,3,3-tetramethylguanidinium tert-Octylphenylpolyethoxyethanolate [IL1]”, the “solubility in the oil” value in data set [1] is reported as “soluble in the oil”. In data set [2], this substance gave a base number of 61 mg KOH/g.
